# Assay results as given in US20170368082A1, “FORMULATIONS OF BRINCIDOFOVIR” (priority 2016, published 2017).
# Experiment: Tissue distribution by quantitative whole-body autoradiography (QWBA)
# Assay type: in vivo, male Sprague Dawley and Long-Evans rats
# Conditions: PO 15 mg/kg, Group 7
# Procedure: The study utilized 4 groups of male SD rats (albino), and 3 groups of male LE rats (pigmented); a total of 39 rats. All animals were obtained from Hilltop Lab Animals, Inc. (Scottdale, Pa.). […] Rats in Group 5 were administered a single 2-h IV infusion of [^14C]brincidofovir at a target dose of 2 mg/kg. […] Three dosing formulations (one for high dose IV, one for low dose IV, and one for PO dose) were prepared at QPS on the day of dosing. The IV formulation for Groups 1, 2, 3, and 4 contained a vehicle of 10 mM sodium phosphate buffer in 5% dextrose solution at pH 8.0(±0.1).
# Each animal, at their respective termination time points, was euthanized for QWBA analysis immediately after blood collection. One rat per time point per Group was euthanized as listed below.
# The blood samples were maintained on wet ice (approximately 4° C.) and then centrifuged to obtain plasma within 1 h of the blood collection time. Centrifuge settings were recorded in the study notebook. Duplicate aliquots of plasma (0.050 mL) were analyzed for radioactivity using direct counting by LSC, and residual plasma was stored at approximately −70° C. and was saved for possible future analysis under a separate study protocol. Residual red blood cells were discarded as radioactive waste.
# The pinna, distal limbs, hair, and tail were removed from each frozen carcass and each frozen carcass was embedded in an aqueous suspension of approximately 2% (w/v) carboxymethylcellulose and frozen into a block. The blocks were stored at approximately −20° C. prior to sectioning. Each blocked carcass was mounted on the object stage of a cryomicrotome (Leica CM3600 Cryomacrocut, Nussloch, Germany and Vibratome 9800, St. Louis, Mo.) maintained at approximately −20° C. and internal standards (3), which were plasma fortified with [^14C]-glucose at one concentration (approximately 0.05 μCi/mL), were placed into the frozen blocks, prior to sectioning, and were used for section thickness quality control. A number of whole-body sections (approximately 40 μm thick) were taken in the sagittal plane at various levels of interest using a whole-body cryomicrotome set at −20° C. Sagittal sections (20-50 μm thick) of frozen carcasses were exposed to phosphor imaging plates. Regions of images in tissues were converted to concentrations using standards. All of the major tissues, organs, and biological fluids were represented.
# Tissue concentration data was determined for the following tissues and/or contents: adipose (brown and white), adrenal gland, bile (in duct), blood (cardiac), bone, bone marrow, brain (cerebrum, cerebellum, medulla), cecum (and contents), large intestine (and contents), epididymis, esophagus, eye (uvea and lens), Harderian gland, heart, kidney (cortex and medulla), liver, lung, lymph node, pancreas, pituitary gland, prostate gland, salivary gland, seminal vesicles, skeletal muscle, skin (pigmented and non-pigmented), small intestine (and contents), stomach (gastric mucosa and contents), spleen, spinal cord, testis, thymus, thyroid, and urinary bladder (and contents).
# The imaging plate and sections were placed in light-tight exposure cassettes, in a copper-lined lead safe, for a 4-day exposure at room temperature. […] Quantification was performed by image densitometry using MCD image analysis software (v. 7.0, Interfocus Imaging Ltd) and a standard curve constructed from the integrated response [i.e., Molecular Dynamics Counts per square millimeter (MDC/mm^2)] and the nominal concentrations of the ^14C-calibration standards. The concentrations of radioactivity were expressed as the μg equivalents of [^14C]brincidofovir per gram sample (μg equiv/g). A lower limit of quantification (LLOQ) was applied to the data (See section 6.7.4).
# Tissue concentrations that fell below the LLOQ were identified as being below the quantification limit (BQL). Tissue areas that were not visualized on autoradiographic images were identified as no sample (NS) and reported as BQL.
smiles,measurement,setting,value
CCCCCCCCCCCCCCCCOCCCOP(=O)(O)CO[C@H](CO)Cn1ccc(N)nc1=O [[14C]brincidofovir],AUCall,Adipose (brown),24.3703 μg equiv · h/g
same,AUCinf—obs,Adipose (brown),24.4043 μg equiv · h/g
same,Tmax,Adipose (brown),4 h
same,t1/2,Adipose (brown),233.5 h
same,AUCall,Adipose (white),1.1215 μg equiv · h/g
same,AUCinf—obs,Adipose (white),2.4387 μg equiv · h/g
same,Tmax,Adipose (white),4 h
same,t1/2,"Adipose (white), estimate (footnote a)",17.6 h
same,AUCall,Adrenal Gland,74.5860 μg equiv · h/g
same,AUCinf—obs,Adrenal Gland,58.7136 μg equiv · h/g
same,Tmax,Adrenal Gland,8 h
same,t1/2,Adrenal Gland,43.2 h
same,AUCall,Blood (cardiac),21.9165 μg equiv · h/g
same,AUCinf—obs,Blood (cardiac),22.3146 μg equiv · h/g
same,Tmax,Blood (cardiac),8 h
same,t1/2,"Blood (cardiac), estimate (footnote a)",32.8 h
same,AUCall,Bone Marrow,68.7413 μg equiv · h/g
same,AUCinf—obs,Bone Marrow,50.2191 μg equiv · h/g
same,Tmax,Bone Marrow,8 h
same,t1/2,"Bone Marrow, estimate (footnote a)",96.3 h
same,AUCall,Bone,1.8470 μg equiv · h/g
same,AUCinf—obs,Bone,3.7274 μg equiv · h/g
same,Tmax,Bone,4 h
same,t1/2,"Bone, estimate (footnote a)",53.9 h
same,AUCall,Brain (cerebellum),0.8610 μg equiv · h/g
same,Tmax,Brain (cerebellum),8 h
same,AUCall,Brain (cerebrum),0.7650 μg equiv · h/g
same,Tmax,Brain (cerebrum),8 h
same,AUCall,Brain (medulla),0.5770 μg equiv · h/g
same,Tmax,Brain (medulla),4 h
same,AUCall,Cecum,174.4118 μg equiv · h/g
same,AUCinf—obs,Cecum,142.1970 μg equiv · h/g
same,Tmax,Cecum,8 h
same,t1/2,"Cecum, estimate (footnote a)",69.9 h
same,AUCall,Epididymis,31.1150 μg equiv · h/g
same,AUCinf—obs,Epididymis,22.3936 μg equiv · h/g
same,Tmax,Epididymis,4 h
same,t1/2,"Epididymis, estimate (footnote a)",89.0 h
same,AUCall,Esophagus,27.9015 μg equiv · h/g
same,AUCinf—obs,Esophagus,29.1559 μg equiv · h/g
same,Tmax,Esophagus,4 h
same,t1/2,Esophagus,37.2 h
same,AUCall,Eye (uveal tract),16.2765 μg equiv · h/g
same,AUCinf—obs,Eye (uveal tract),19.8244 μg equiv · h/g
same,Tmax,Eye (uveal tract),8 h
same,t1/2,"Eye (uveal tract), estimate (footnote a)",57.7 h
same,AUCall,Harderian Gland,63.7645 μg equiv · h/g
same,AUCinf—obs,Harderian Gland,50.8931 μg equiv · h/g
same,Tmax,Harderian Gland,8 h
same,t1/2,"Harderian Gland, estimate (footnote a)",151.8 h
same,AUCall,Heart,31.1603 μg equiv · h/g
same,AUCinf—obs,Heart,23.2365 μg equiv · h/g
same,Tmax,Heart,8 h
same,t1/2,"Heart, estimate (footnote a)",110.8 h
same,AUCall,Kidney Cortex,804.4980 μg equiv · h/g
same,AUCinf—obs,Kidney Cortex,822.5076 μg equiv · h/g
same,Tmax,Kidney Cortex,8 h
same,t1/2,"Kidney Cortex, estimate (footnote a)",244.8 h
same,AUCall,Kidney Medulla,342.0130 μg equiv · h/g
same,AUCinf—obs,Kidney Medulla,286.4307 μg equiv · h/g
same,Tmax,Kidney Medulla,8 h
same,t1/2,Kidney Medulla,41.2 h
same,AUCall,Large Intestine,140.3313 μg equiv · h/g
same,AUCinf—obs,Large Intestine,123.4302 μg equiv · h/g
same,Tmax,Large Intestine,8 h
same,t1/2,"Large Intestine, estimate (footnote a)",37.6 h
same,AUCall,Liver,1426.6340 μg equiv · h/g
same,AUCinf—obs,Liver,1435.9700 μg equiv · h/g
same,Tmax,Liver,4 h
same,t1/2,"Liver, estimate (footnote a)",190.3 h
same,AUCall,Lung,53.1145 μg equiv · h/g
same,AUCinf—obs,Lung,39.9962 μg equiv · h/g
same,Tmax,Lung,8 h
same,t1/2,Lung,93.0 h
same,AUCall,Lymph Node,85.04 μg equiv · h/g
same,AUCinf—obs,Lymph Node,57.7701 μg equiv · h/g
same,Tmax,Lymph Node,8 h
same,t1/2,"Lymph Node, estimate (footnote a)",86.4 h
same,AUCall,Pancreas,10.3720 μg equiv · h/g
same,AUCinf—obs,Pancreas,12.7271 μg equiv · h/g
same,Tmax,Pancreas,4 h
same,t1/2,Pancreas,62.1 h
same,AUCall,Pituitary Gland,30.5073 μg equiv · h/g
same,AUCinf—obs,Pituitary Gland,22.8331 μg equiv · h/g
same,Tmax,Pituitary Gland,4 h
same,t1/2,Pituitary Gland,106.2 h
same,AUCall,Prostate Gland,7.6578 μg equiv · h/g
same,AUCinf—obs,Prostate Gland,11.0471 μg equiv · h/g
same,Tmax,Prostate Gland,4 h
same,t1/2,Prostate Gland,70.1 h
same,AUCall,Salivary Gland,9.1933 μg equiv · h/g
same,AUCinf—obs,Salivary Gland,12.3800 μg equiv · h/g
same,Tmax,Salivary Gland,8 h
same,t1/2,"Salivary Gland, estimate (footnote a)",67.4 h
same,AUCall,Seminal Vesicles,50.2500 μg equiv · h/g
same,AUCinf—obs,Seminal Vesicles,34.9600 μg equiv · h/g
same,Tmax,Seminal Vesicles,1 h
same,t1/2,Seminal Vesicles,64.7 h
same,AUCall,Skeletal Muscle,1.3265 μg equiv · h/g
same,Tmax,Skeletal Muscle,8 h
same,AUCall,Skin (non-pigmented),14.0275 μg equiv · h/g
same,AUCinf—obs,Skin (non-pigmented),20.6749 μg equiv · h/g
same,Tmax,Skin (non-pigmented),8 h
same,t1/2,"Skin (non-pigmented), estimate (footnote a)",93.7 h
same,AUCall,Skin (pigmented),17.0405 μg equiv · h/g
same,AUCinf—obs,Skin (pigmented),21.3144 μg equiv · h/g
same,Tmax,Skin (pigmented),8 h
same,t1/2,"Skin (pigmented), estimate (footnote a)",63.4 h
same,AUCinf—obs,Small Intestine,9585.0880 μg equiv · h/g
same,Tmax,Small Intestine,4 h
same,t1/2,Small Intestine,98.1 h
same,AUCall,"Small Intestine, 15 mg/kg",9575.1810 μg equiv · h/g
same,AUCall,Spinal Cord,0.1110 μg equiv · h/g
same,Tmax,Spinal Cord,4 h
same,AUCall,Spleen,172.2208 μg equiv · h/g
same,AUCinf—obs,Spleen,125.7566 μg equiv · h/g
same,Tmax,Spleen,24 h
same,t1/2,Spleen,115.4 h
same,AUCall,Stomach (mucosa),90.7575 μg equiv · h/g
same,AUCinf—obs,Stomach (mucosa),80.6917 μg equiv · h/g
same,Tmax,Stomach (mucosa),2 h
same,t1/2,Stomach (mucosa),66.8 h
same,AUCall,Testis,30.3920 μg equiv · h/g
same,AUCinf—obs,Testis,21.7757 μg equiv · h/g
same,Tmax,Testis,8 h
same,t1/2,"Testis, estimate (footnote a)",87.2 h
same,AUCall,Thymus,12.0843 μg equiv · h/g
same,AUCinf—obs,Thymus,20.6983 μg equiv · h/g
same,Tmax,Thymus,8 h
same,t1/2,"Thymus, estimate (footnote a)",96.9 h
same,AUCall,Thyroid,31.3395 μg equiv · h/g
same,AUCinf—obs,Thyroid,21.8086 μg equiv · h/g
same,Tmax,Thyroid,4 h
same,t1/2,Thyroid,59.0 h
same,AUCall,Urinary Bladder,111.2445 μg equiv · h/g
same,AUCinf—obs,Urinary Bladder,91.1627 μg equiv · h/g
same,Tmax,Urinary Bladder,8 h
same,t1/2,Urinary Bladder,49.7 h
